Measured values: US6734168B2, “Endothelial monocyte activating polypeptide II: a mediator which activates host response” (The Trustees of Columbia University in the City of New York, priority 1993, dated 2004)

What was measured:
[1] = test system: human peripheral blood monocytes (MPs); experiment: Mononuclear phagocyte migration in microchemotaxis chambers; format: cell-based
Description: Assessment of mononuclear phagocyte (mononuclears) and polymorphonuclear leukocyte (PMN) migration. Human peripheral blood monocytes were isolated from the blood of normal healthy volunteers (30). Blood was centrifuged on Hisopaque 1077 (Sigma, St. Louis, Mo.), the mononuclear fraction was obtained, washed twice in Earle's balanced salt solution, resuspended in RPMI 1640 containing human serum (10%; Gemini, Calabasas, Calif.), plated on tissue culture dishes and incubated at 37° C. for 1-2 hrs. Nonadherent cells were removed by washing the plate twice with balanced salt solution, and adherent cells were harvested by incubation with calcium-magnesium free buffer containing EDTA (2 mM) for 15 min at 37° C., followed by extensive washing. PMNs were prepared by centrifugation over Hisopaque 1119 as per the manufacturer's protocol (Sigma). Chemotaxis assays were performed in microchemotaxis chamber (NeuroProbe, Bethesda, Md.) containing Nucleopore polycarbonate membranes (5 μm; Nucleopore, Pleasonton, Calif.). Mononuclears or PMNs were suspended in RPMI 1640 containing fetal bovine serum (1%) and 10^4 cells were added per well to the upper chamber. The chemotactic stimulus was added to the indicated chamber, and assays were performed in quadruplicate over a 3 hr or 45 min incubation period at 37° C., with mononuclear cells or PMNs, respectively, after which non-migrating cells were removed, membranes were fixed in methanol, migrating cells were visualized with Wright's stain. Cells in nine high-power fields were counted, and the mean and standard error of the mean (SEM) were determined.
Cell migration was studied by adding MPs or PMNs (10^4 cells/well) resuspended in RPMI 1640 with fetal calf serum (1%; Gemini) to the upper wells of a microchemotaxis chamber (Neuro Probe, Bethesda, Md.) containing Nucleopore polycarbonate membranes (5 μm, Nucleopore, Pleasanton Calif.), as described (7,29-30). The chemotactic stimulus was placed in the upper or lower chamber, as indicated, and cells were allowed to migrate for 3 hrs (for MPs) or 45 min (for PMNs) at 37° C. Following removal of non-migrating cells, membranes were fixed in methanol and migrating cells were visualized with Wright's stain. Assays were performed in quadruplicate, and cells were counted in nine high-power fields in each case (mean±SEM is shown in the figures).
Migration of PMNs and MPs—Migration was studied using cells (10^4 and 10^3 cells/well form PMNs and MPs, respectively) resuspended in RPMI 1640 with fetal calf serum (1%) added to the upper wells of a microchemotaxis chamber (Neuro Probe, Bethesda, Md.) containing Nucleopore polycarbonate membranes (5 um, Nucleopor, Pleasanton, Calif.), as described (13, 22, 35). The stimulus was placed in the upper or lower chamber, as indicated, and the cells were allowed to migrate for 3 h (for MPs) or 45 min (for PMNs) at 37° C. Following removal of nonmigrating cells, membranes were fixed in methanol, and migrating cells were visualized with Wright's stain. Assays were performed in quadruplicate, and cells were counted in […] high-power fields in each case (mean±S.E. is shown in the figures).

mouse footpad = experiment: Injection of peptides and peptide-albumin conjugates into mouse footpads; format: in vivo; details: unconjugated peptide
Description: Preparation and implantation of peptide-albumin conjugates into mice. Peptide-albumin conjugates (made with either […], […] or […]) (SEQ ID NO. 16) were prepared using glutaraldehyde as described (39). In brief, mouse serum albumin (50 μg) was incubated with glutaraldehyde (450 μg) and the indicated peptide (200 μg) in NaCl (0.1 M) Tris (0.05 N; pH 7.3) for 10 min at room temperature. Excess lysine was added (final concentration, 0.5 M), and the albumin-peptide conjugates were dialyzed exhaustively versus phosphate-buffered saline. BALB/c mice (6-12 weeks) each received an injection into the footpad (7,40-41) of 0.05 ml of a solution of either (i) albumin-peptide conjugate (50 μg, total protein/footpad), (ii) albumin treated with glutaraldehyde in an identical fashion, except that no peptide was present (50 μg, total protein/footpad), (iii) native albumin (50 μg total protein/footpad), or (iv) buffer alone. At the indicated time, animals were sacrificed by humane euthanasia, footpads were harvested, fixed in buffered formalin (10%), decalcified, and embedded in paraffin. Sections were stained with hematoxylin and eosin.

Question: Which “Induction of MP (mononuclear cell) migration (chemotaxis)” value ([1]; microchemotaxis chamber, 3 hrs at 37° C.) does the source give for “ASRLDLRIGRIVTAKY [residues #6-20 from EMAP II, Cys to Arg substitution at position #15, and a C-terminal Tyr]” here?
Answer: induce chemotaxis

Question: And the “MP migration at 100 pM peptide relative to FMLP at 1 μM” value ([1]; peptide 100 pM)?
Answer: similar

Question: And the “Inflammatory response to free peptide injected subcutaneously into mice” value (mouse footpad)?
Answer: at most a transient inflammatory response
